Test results reported in patent US8568763B2, “Compositions and coatings for delivery of therapeutic agents” (The University of Tennessee Research Foundation, priority 2004, dated 2013).

Key:
[1] = in vivo; conditions: pig
Experimental: Preimplantation and postexplantation grafts, blood and tissues were sent to the HPLC Drug Monitoring Laboratory at the University of Texas Medical School at Houston, (6431 Fannin, Suite 6.233, Houston Tex. 77030) for rapamycin level quantification. Analyses were performed using HPLC/UV assays developed by Dr Kimberly L. Napoli, the director of the laboratory (Napoli et al., “Distribution of Sirolimus in Rat Tissue,” Clin. Biochem. 30:135-42 (1997), which is hereby incorporated by reference in its entirety). Whole blood was collected on the first three postoperative days and at euthanasia to quantitate systemic exposure to rapamycin. To confirm elution of rapamycin from the ePTFE and deposition of drug in the native arterial wall, explanted grafts and adjacent iliac artery were snap frozen in liquid nitrogen. The tissues were packaged on dry ice and sent for rapamycin quantification. The kinetics of elution were extrapolated by sacrificing nine animals (n=3 per time point) on postoperative day 7, 14 and 28. These animals were separate from the twenty-two animals used to evaluate for changes in neointimal hyperplasia.
Similar drug levels were detected despite sterilization. Similarly, the rapamycin fraction was detected 18 minutes after instilling the sample onto the HPLC column irrespective of sterilization. […] Levels decreased from 1000 μg preimplatation to 26.7 μg at one week post explantation. Drug (2.9 μg/gm) was detected in the adjacent arterial wall on postoperative day 7 and persisted until euthanasia.

[2] = 90 days, rapamycin-eluting stents, Carter et al; cited from earlier work
[3] = blood of patients prophylaxed against kidney transplant rejection; cited from earlier work

concentration at 1 day ([1]; mongrel): 9.3 ± 0.2 ng/mL
concentration at 2 day ([1]; mongrel): 2 ± 0.1 ng/mL
concentration at 3 day ([1]; mongrel): 1.9 ± 0.2 ng/mL
Rapamycin level in artery ([1]; mongrel, 7 day): 2.9 ± 0.8 μg/gm
Rapamycin level in graft ([1]; mongrel, 14 day): 12.8 ± 5.0 µg
Rapamycin level in graft ([1]; mongrel, 28 day): 0.005 ± 0.001 µg
Detection of rapamycin in blood [1]: not detectable
concentration at 7 day [1]: 2900 ng/g
concentration at 28 day [1]: 25 ng/g
SMILES: CO[C@H]1C[C@@H]2CC[C@@H](C)[C@@](O)(O2)C(=O)C(=O)N2CCCC[C@H]2C(=O)O[C@H]([C@H](C)C[C@@H]2CC[C@@H](O)[C@H](OC)C2)CC(=O)[C@H](C)/C=C(\C)[C@@H](O)[C@@H](OC)C(=O)[C@H](C)C[C@H](C)/C=C/C=C/C=C/1C [Rapamycin, rapamycin]
Elution of rapamycin off grafts [1]: majority of rapamycin eluted off grafts by one week
Rapamycin in the arterial wall [2]: 0.32 ng/mg
current therapeutic rapamycin level [3]: 8 to 17 ng/mL
